Test results published in patent publication US8207206B2, “(S,R)-3-phenyl-4,5 dihydro-5-isoxazole acetic acid-nitric oxide and use thereof as anti-cancer and antiviral agent” (OncoNOx APS, priority 2007, dated 2012).

Key:
ConA-induced hepatitis = assay: Hepatitis induced by concanavalin (ConA) injection in NMRI mice; format: in vivo; conditions: prophylactic, all tested doses (0.5 and 1 i.p., 5 mg/mouse p.o.), -24 and -1 h prior to ConA, blood 8 h after ConA, vs vehicle
Description: ConA-induced hepatitis is a cell-mediated immunoinflammatory condition similar to different immunoinflammatory conditions of liver diseases in humans that can be induced in mice by a single intravenous injection of ConA. This disease is characterized by a marked increase in the plasma levels of transaminase shortly (8-24 hours) after ConA challenge and simultaneous infiltration of the liver with neutrophils, macrophages and T cells followed by apoptosis and necrosis of the hepatocytes.
Hepatitis was induced by ConA (Sigma Chemical, St. Louis, Mo.) injection into the tail veins in six to 9 weeks Naval Medical Research Institute (NMRI) male mice. Four groups of mice were treated or i.p. with Git27-NO at the doses of 0.5 and 1 or p.o. at 5 mg/mouse or with the vehicle, −24 and −1 hours prior to ConA. The animals were sacrificed for blood collection 8 hours after Con A injection and plasma alanine aminotransferase (ALT) activity was determined by a standard photometric assay using a bichromatic analyzer.

B16 cells = assay: Autophagy detection by acridin orange staining (flow cytometry); format: cell-based, mouse; conditions: B16, 25 μg/ml, 24 h
Description: (§1) As a marker of necrotic cell death, the release of intracellular enzyme LDH, which mediates the conversion 2,4-dinitrophenylhydrazine into visible hydrazone precipitate in the presence of pyruvate, was measured. The cells were seeded in flat-bottom 96-well plates as indicated above and the assay was performed after 24 h incubation, as previously described (Decker et al). The percentage of dead cells was determined using the following formula: [(E−C)/(T−C)]×100, wherein E is the experimental absorbance of treated cultures measured at 492 nm, C is the absorbance of supernatants of control untreated cells, and T is the absorbance corresponding to the maximal (100%) LDH release of Triton-lysed cells. Cell cycle analysis and apoptosis detection were carried out exactly as described in the literature (Mijatovic CMLS 2005). Acidic vesicular organelles, which characterise autophagy, are stained by vital dye acridin orange. The intensity of red fluorescence is proportional to the acidity and volume of the organelles, while the cytoplasm and nucleolus emits bright green and dim red (Kanzawa 2004). […] Green (510-530 nm) and red (>650 nm) fluorescence emission from 10^4 cells illuminated with blue (488 nm) excitation light was measured with a FACS Calibur and analyzed using CellQuest software.

C6 rat astrocytoma cells = assay: MTT / CV cell viability test; format: cell-based; conditions: 24 h
Description: (§2) Rat glioma cell line C6 was a kind gift from Dr. Pedro Tranque (Universidad de Castilla-La Mancha, Albacete, Spain), murine melanoma B16 cell line was a kind gift from Dr. Sinisa Radulovic (Institute for Oncology and Radiology of Serbia, Belgrade, Serbia) while mouse fibrosarcoma L929 was obtained from the European Collection of Animal Cell Cultures (Salisbury, UK). Cells were grown in HEPES-buffered RPM, 1640 medium supplemented with 5% FCS, 2 mM glutamine, 0.01% sodium pyruvate, 5×10^−5 M 2-mercaptoethanol and antibiotics (culture medium) at 37° C. in a humidified atmosphere with 5% CO2. After conventional trypsinization the cells were seeded at a concentration of 10^4 cells/well in a 96-well plate, of 2×10^5 cells/well in a 6-well plate or at 3×10^4 cells/well in a 4-well chamber slide, cultivated overnight, and then exposed to the test compound.
(§3) The cells were seeded in flat-bottom 96-well plates (10^4 cells/well) in a final volume of 200 μl of culture medium, incubated overnight, then treated with different concentrations of the test compound. After 24 h incubation, cell viability was assessed using 3-4,5-dimethylthiazol-2-yl)-2,5-diphenyltetrazolium bromide (MTT) test, based on the mitochondrial-dependent reduction of MTT to formazan, or by crystal violet (CV) staining of adherent cells, as previously described (Mijatovic et al CMLS 2004). The results are presented as % of control values obtained in untreated cultures. The rate of cell proliferation was also determined using flow cytometric analysis of cells labeled with CFSE (Kang 2005). The cells were detached, added with 1.5 μM CFSE and allowed to stand for 15 min at 37° C., then washed twice and seeded in 6-well plates at 2×10^5. The cells were treated with the compound for 24 and 48 h, trypsinized and washed twice. Finally, the cells were resuspended in PBS and analyzed by flow cytometry. Green fluorescence emission from cells illuminated with excitation light of 488 nm was measured with a FACS Calibur (BD, Heidelberg, Germany) and analyzed using the CellQuest software.

[1] = test system: L929 mouse fibrosarcoma cells; assay: MTT / CV cell viability test; format: cell-based; conditions: 24 h
Description: as §2, §3

B16 mouse melanoma cells = assay: MTT / CV cell viability test; format: cell-based; conditions: 24 h
Description: as §2, §3

C6 cells = assay: LDH release assay (cell death); format: cell-based, rat; conditions: C6, dose-dependent (24 h) and time-dependent (25 μg/ml), significant after 18 h
Description: as §1

N#Cc1c(COC(=O)CC2CC(c3ccccc3)=NO2)no[n+]1[O-] (racemic) [GIT27-NO, (S,R)-3-phenyl-4,5 dihydro-5-isoxazole acetic acid-nitric oxide]
plasma ALT activity (ConA-induced hepatitis): significantly reduced
acidic autophagic vesicles (red fluorescence of acridin orange) (B16 cells): significantly increased the intensity of bright red fluorescence
viability (MTT) of GIT27-NO treated cells in the presence of autophagic inhibitors (C6 rat astrocytoma cells; C6, GIT27-NO 25 μg/ml, 3-MA 1 mg/ml or Baf 0.5 μM): recovered
survival (MTT) of GIT27-NO treated cells with specific MAP kinase inhibitors (C6 rat astrocytoma cells; C6, GIT27-NO 25 μg/ml, ERK inhibitor PD98059 50 μM, JNK inhibitor SP600125 0.75 μM): significantly improved the survival
viability (MTT) of GIT27-NO treated cells with ROS scavenger NAC (C6 rat astrocytoma cells; C6, GIT27-NO 25 μg/ml, NAC 2.5 μM): restored the viability
viability (MTT) of GIT27-NO treated cells with PTK inhibitor tyrphostin (C6 rat astrocytoma cells; C6, GIT27-NO 25 μg/ml, tyrphostin 5 μM): almost completely restored the viability
viability (MTT) of GIT27-NO treated cells in parallel with NO-scavenger hemoglobin (C6 rat astrocytoma cells; C6, hemoglobin 12.5 μM, GIT27-NO 25 mg/ml (as printed in b12)): almost completely restored
cell viability (MTT, mitochondrial respiration) (C6 rat astrocytoma cells; C6 cells, different concentrations, cell number also reduced by CV): dose-dependent reduction of mitochondrial respiration
survival (MTT) of GIT27-NO treated cells with specific MAP kinase inhibitors ([1]; L929, GIT27-NO 25 μg/ml, ERK inhibitor PD98059 50 μM, p38 inhibitor SB202190 20 μM): significantly improved the survival
viability (MTT) of GIT27-NO treated cells with ROS scavenger NAC ([1]; L929, GIT27-NO 25 μg/ml, NAC 2.5 μM): restored the viability
viability (MTT) of GIT27-NO treated cells with PTK inhibitor tyrphostin ([1]; L929, GIT27-NO 25 μg/ml, tyrphostin 5 μM): almost completely restored the viability
cell viability (MTT, mitochondrial respiration) ([1]; L929 cells, different concentrations, cell number also reduced by CV): dose-dependent reduction of mitochondrial respiration
viability (MTT) of GIT27-NO treated cells in the presence of autophagic inhibitors (B16 mouse melanoma cells; B16, GIT27-NO 25 μg/ml, 3-MA 1 mg/ml or Baf 0.5 μM): recovered
survival (MTT) of GIT27-NO treated cells with specific MAP kinase inhibitors (B16 mouse melanoma cells; B16, GIT27-NO 25 μg/ml, JNK inhibitor SP600125 0.75 μM): significantly improved the survival
viability (MTT) of GIT27-NO treated cells with ROS scavenger NAC (B16 mouse melanoma cells; B16, GIT27-NO 25 μg/ml, NAC 2.5 μM): restored the viability
viability (MTT) of GIT27-NO treated cells with PTK inhibitor tyrphostin (B16 mouse melanoma cells; B16, GIT27-NO 25 μg/ml, tyrphostin 5 μM): almost completely restored the viability
cell viability (MTT, mitochondrial respiration) (B16 mouse melanoma cells; B16 cells, different concentrations, cell number also reduced by CV): dose-dependent reduction of mitochondrial respiration
LDH release (C6 cells): induced LDH release
